What is called CC50 is the concentration at which the toxic effect on the cells reaches its halfway point. A high value points to lower toxicity to the cells.

Molecules are shown by their SMILES. Some results are limits rather than exact numbers.

1 compound from patent publication US9126986B2, “Hetero-bicyclic derivatives as HCV inhibitors” (Janssen R&D Ireland, priority 2011, dated 2015) can be followed below.

The subject of data set [1] is HCV replicon type 1b in Huh-Luc cells. The data set is described as follows: HCV replicon assay, stable transfection (Huh-7 luc/neo, luciferase readout). It counts as cell-based, HCV type 1b. Particulars: stably transfected Huh-Luc cells, genotype 1b, three days incubation, average where tested more than once, read-out: HCV-REP-HUH7LUC_EC50. An excerpt: The compounds of formula (I) were examined for inhibitory activity in the HCV replicon. This cellular assay is based on a bicistronic expression construct, as described by Lohmann et al. (Science (1999) 285: 110-113; Journal of Virology (2003) 77: 3007-3019) with modifications described by Krieger et al. (Journal of Virology (2001) 75: 4614-4624), and Lohmann et al. (Journal of Virology (2003) 77: 3007-3019) for genotype 1b and by Yi et al. (Journal of Virology (2004) 78: 7904-7915) for genotype 1a, in a multi-target screening strategy.
The method was as follows. The assay utilized the stably transfected cell line Huh-7 luc/neo (hereafter referred to as Huh-Luc). This cell line harbors an RNA encoding a bicistronic expression construct comprising the wild type NS3-NS5B regions of HCV type 1b translated from an Internal Ribosome Entry Site (IRES) from encephalomyocarditis virus (EMCV), preceded by a reporter portion (FfL-luciferase), and a selectable marker portion (neoR, neomycine phosphotransferase). The construct is flanked by 5′ and 3′ NTRs (non-translated regions) from HCV type 1b. Continued culture of the replicon cells in the presence of G418 (neoR) is dependent on the replication of the HCV RNA. The stably transfected replicon cells that replicate HCV RNA autonomously and to high levels, encoding inter alia luciferase, were used for screening the antiviral compounds.
The replicon cells were plated in 384 well plates in the presence of the test and control compounds which were added in various concentrations. Following an incubation of three days, HCV replication was measured by assaying luciferase activity (using standard luciferase assay substrates and reagents and a Perkin Elmer ViewLux™ ultraHTS microplate imager). Replicon cells in the control cultures have high luciferase expression in the absence of any inhibitor. The inhibitory activity of the compound was monitored on the Huh-Luc cells, enabling a dose-response curve for each test compound. EC50 values were then calculated, which represent the amount of compound required to decrease the level of detected luciferase activity by 50%, or more specifically, to reduce the ability of the genetically linked HCV replicon RNA to replicate.
Where a compound of formula (I) was tested more than once in the replicon assay, the average of all test results is given in this Table 1.

Data set [2] deals with HCV subgenomic replicon genotype 1b Con1 in Huh-7 lunet cells. The data set is described as follows: HCV replicon assay, transient transfection, genotype 1b Con1. It counts as cell-based, HCV genotype 1b Con1. Particulars: transiently transfected Huh-7 lunet, genotype 1b Con1, two days incubation, luciferase. The text has this:
(§1) In a transient set-up, a Huh-7 lunet hepatoma cell line was transiently transfected with an autonomously replicating RNA encoding a bi-cistronic expression construct. This construct comprises a firefly luciferase reporter gene preceding the NS3-NS5B subgenomic region of HCV (genotype 1a H77 or 1b Con1). Translation of the HCV subgenomic region is mediated by an internal ribosome entry site of encephalomyocarditis virus. The construct is furthermore flanked by 5′ and 3′ untranslated regions of HCV (genotype 1a H77 or 1b Con 1, respectively), which allow for replication of the RNA.
(§2) Cells were plated in 384 well plates in the presence of test and control compounds, which were added in various concentrations. Following an incubation of two days, replication of the HCV subgenomic replicon RNA was measured by assaying luciferase activity (using standard luciferase assay substrates and reagents and a Perkin Elmer ViewLux™ ultraHTS microplate imager). HCV subgenomic replicon containing cells in the control cultures have high luciferase expression in the absence of any inhibitor. The inhibitory activity of the compound was monitored, enabling a dose-response curve for each test compound. EC50 values were then calculated, which represent the amount of compound required to decrease the level of detected luciferase activity by 50%, or more specifically, to reduce the ability of the genetically linked HCV subgenomic RNA to replicate.
In general terms: A replicon is a self-replicating genome or part of one, used to study replication in cells.

In data set [3] the test system is HCV subgenomic replicon genotype 1a H77 in Huh-7 lunet cells. The data set can be described thus: HCV replicon assay, transient transfection, genotype 1a H77. It counts as cell-based, HCV genotype 1a H77. The note with it: transiently transfected Huh-7 lunet, genotype 1a H77, two days incubation, luciferase.
Source text: as §1, §2

In the next data set the test system is MT4-LTR-Luc cells. The data set can be described thus: Counterscreen MT4-LTR-Luc. It counts as cell-based. Particulars: MT4 T-cell line with long terminal repeat-Luc reporter. The text has this: Counterscreen cell lines included a Huh-7 hepatoma cell line containing a human cytomegalovirus major immediate-early promoter-Luc construct (Huh7-CMV-Luc) and an MT4 T-cell line containing a long terminal repeat-Luc reporter (MT4-LTR-Luc).

For the compound `COC(=O)N[C@H](C(=O)N1CCCC1c1[nH]c2cc(-c3ccc(-c4ccc(-c5cnc([C@@H]6CCCN6C(=O)[C@@H](NC(=O)OC)C(C)C)[nH]5)cc4)cc3)ccc2c(=O)c1F)C(C)C` (single isomer, unassigned) [Compound 18b], the values for the EC50 in data set [1], in data set [2] and in data set [3] were 4.4 nM, 6.7 nM and 65.6 nM, respectively. In the data set on MT4-LTR-Luc cells, this compound registered a 50% cytotoxic concentration (CC50) of more than 984 nM.
